Results taken from patent publication US20200289482A1, “CYSTIC FIBROSIS TRANSMEMBRANE CONDUCTANCE REGULATOR MODULATORS FOR TREATING AUTOSOMAL DOMINANT POLYCYSTIC KIDNEY DISEASE” (The Johns Hopkins University, priority 2017, published 2020).

Key:
Type in all cases: cell-based, mouse
cAMP in PN cells = assay: Cyclic AMP enzyme immunoassay in cells; conditions: for increase of cAMP activity in PN cells: treating PN cells with forskolin or IBMX
Method: FIG. 4A, FIG. 4B, FIG. 4C, FIG. 4D, and FIG. 4E show (FIG. 4A-FIG. 4B) cAMP levels are reduced by VX-809. (FIG. 4A) cAMP levels in mouse tissue were reduced by VX-809. The kidney samples (n=6) analyzed were taken from those depicted in FIG. 1. (FIG. 4B) Confluent PN and PH cells were treated with VX-809 (10 μM) or DMSO for 16 h and then treated with forskolin (100 μM) for 30 min before the cells were harvested for the assay. Columns represent means±SEM. Statistical analysis was performed using a two-tailed Student's t-test. Each set of data is from three individual wells; Note that resting cAMP is greater in PN vs PH cells as previously shown (25). Also note that forskolin caused a large increase in cAMP. A smaller increase occurred with IBMX. However, the increase induced by forskolin alone was similar to that by IBMX plus forskolin. […] (FIG. 4C, FIG. 4D, and FIG. 4E) Adenylyl cyclase expression. (FIG. 4C) Western blot showing the expression of adenylyl cyclase (AC) 6 and AC3 in treated and control PN cells. (FIG. 4D-FIG. 4E) Columns represent means±SEM of the AC3 and AC6 expression. The data were analyzed by non-parametric t-test. The experiment was repeated four times. For all graphs, *P<0.05, **P<0.01, and ***P<0.001;
It has been shown previously in both animal and cell culture models of ADPKD that cells lacking functional PC1 have elevated cAMP levels when compared to normal (24). To assess the effect of CFTR correctors, cAMP activity was measured in PC1 conditional knockout mouse kidneys and in PN cells that were either left untreated or treated with VX-809. […] Cells were treated with forskolin, which increased cAMP levels drastically (FIG. 4B). […] Treating PN cells with forskolin or IBMX (FIG. 4B) increased the cAMP activity by ˜10-fold.
Confluent cells were treated with VX-809 (10 μM) or DMSO for 16 h before being harvested for assay. Cyclic AMP levels were measured with a direct cAMP Enzyme Immunoassay Kit (Sigma, # CA200) according to the manufacturer's protocol. The results are expressed as pmole/ml. Statistical analysis was performed using a two-tailed Student's t-test.

Hsp70 = assay: Cycloheximide chase, disappearance of Hsp70 in PN cells; conditions: cycloheximide 25 μM, 8 h
Method: (§1) FIG. 9A, FIG. 9B, FIG. 9C, FIG. 9D, FIG. 9E, FIG. 9F, FIG. 9G, and FIG. 9H show Hsp27, HSp70, and Hsp90 expression in PN cells treated with VX-809 and/or cycloheximide. (A) Pkd1 null (PN) cells were treated with VX-809 (10 μM) and/or with cycloheximide (25 μM) for indicated time points before being harvested for the assay. (FIG. 9A) Western blot showing expression of Hsp27, Hsp70, and Hsp90 in VX-809-(16 h), cycloheximide-treated, or control PN cells. ((FIG. 9B. (FIG. 9C, and (FIG. 9D) Columns represent averages±standard errors of Hsp27, Hsp70, and Hsp90 expression in cells treated with VX-809 and/or cycloheximide. ((FIG. 9E) Western blot showing expression of Hsp27, Hsp70, and Hsp90 in PN cells treated with VX-809+cycloheximide or control PN cells. ((FIG. 9F, (FIG. 9G, and (FIG. 9H) Columns represent averages±standard errors of Hsp27, Hsp70, and Hsp90 expression in cells treated only with cycloheximide or in control PN cells. Data were analyzed by non-parametric t-test. The experiments were repeated 3-5 times. *P<0.05, **P<0.01;
(§2) To gain more insight into the mechanism whereby VX-809 alters Hsp protein levels, translation was inhibited by using cycloheximide (35) and the disappearance of the three Hsps was monitored. […] Hsp 90 was reduced by approximately 25%, and Hsp27 was unchanged.

Hsp90 = assay: Cycloheximide chase, disappearance of Hsp90 in PN cells; conditions: cycloheximide 25 μM, 8 h
Method: as §1, §2

Hsp27 = assay: Cycloheximide chase, disappearance of Hsp27 in PN cells; conditions: cycloheximide 25 μM, 8 h
Method: as §1, §2

SMILES | increase of cAMP activity in PN cells (cAMP in PN cells) [fold] | forskolin elevates cAMP activity (cAMP in PN cells; as restated at the end of Example 4) [fold] | steady-state level of Hsp70 after cycloheximide alone (Hsp70) | steady-state level of Hsp90 after cycloheximide alone (Hsp90) | steady-state level of Hsp27 after cycloheximide alone (Hsp27)
CC(C)Cn1c(=O)n(C)c(=O)c2[nH]cnc21 [IBMX, 3-isobutyl-1-methylxanthine] | ~10 | – | – | – | –
C=C[C@@]1(C)CC(=O)[C@]2(O)[C@@]3(C)[C@@H](O)CCC(C)(C)[C@@H]3[C@H](O)[C@H](OC(C)=O)[C@@]2(C)O1 [forskolin] | ~10 | ~500 | – | – | –
C[C@@H]1C[C@@H]([C@H](O)CC2CC(=O)NC(=O)C2)C(=O)[C@@H](C)C1 [cycloheximide] | – | – | unchanged over the 8 h | unchanged over the 8 h | unchanged over the 8 h
